Experiments:
GPR17 [1] = biological target: T1, GPR17 (Homo sapiens, UniProt Q13304); assay: Calcium mobilization functional assay (GPR17 Ca2+ assay); assay type: cell-based; design: host or cells: Flp-In T-REx CHO; conditions: CHO hGPR17 cells, inhibition of 50 nM MDL29,951, Calcium 5 dye, FLIPR; read-out: Ca2+ assay pIC50 (converted)
Outline: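 Flp-In T-REx CHO cells stably expressing human GPR17, doxycycline-induced (1 μg/mL, 16-20 h), loaded 60 min with Calcium 5 dye. Inhibition by varying test-compound concentrations of the 50 nM MDL29,951 agonist response was read by fluorescence over time at room temperature. pIC50 came from 4-parameter logistic fitting.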

GPR17 [2] = biological target: T1, GPR17; assay: cAMP accumulation functional assay (HTRF, Schild analysis); assay type: cell-based; design: host or cells: Flp-In T-REx CHO; conditions: CHO hGPR17 cells, Schild analysis vs MDL29,951, 5 μM forskolin, read-out: cAMP assay pA2 (converted)
Outline: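 CHO Flp-In T-REx cells with doxycycline-induced human GPR17 were preincubated 30 min at room temperature in HBSS-HEPES pH 7.4 with antagonist. cAMP was then measured by HTRF after 60 min. MDL29,951 pEC50 shifts gave dose ratios, and Schild analysis gave pA2.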

T1 sequence (Q13304 whole entry): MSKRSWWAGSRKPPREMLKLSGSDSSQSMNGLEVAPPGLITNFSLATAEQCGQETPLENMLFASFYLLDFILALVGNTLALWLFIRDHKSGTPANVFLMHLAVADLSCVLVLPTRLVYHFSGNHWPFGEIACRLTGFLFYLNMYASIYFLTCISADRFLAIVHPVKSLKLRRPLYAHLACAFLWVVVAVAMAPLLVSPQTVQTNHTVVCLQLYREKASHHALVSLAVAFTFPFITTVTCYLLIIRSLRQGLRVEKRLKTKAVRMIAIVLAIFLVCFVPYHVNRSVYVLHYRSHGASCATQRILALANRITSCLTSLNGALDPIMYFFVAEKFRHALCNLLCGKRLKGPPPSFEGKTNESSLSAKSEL

Compound | IC50 (GPR17 [1]) | Kb (GPR17 [2])
O=S(=O)(Nc1ccc(F)c2nsnc12)c1c[nH]c2cc(Cl)ccc12 [Compound I-127, 6-chloro-N-(7-fluoro-2,1,3-benzothiadiazol-4-yl)-1H-indole-3-sulfonamide] | 3.16 to 31.6 nM | 3.16 to 31.6 nM
O=S(=O)(Nc1cccc2nsnc12)c1c[nH]c2ncc(I)cc12 [Compound I-98, N-(2,1,3-benzothiadiazol-4-yl)-5-iodo-1H-pyrrolo[2,3-b]pyridine-3-sulfonamide] | 3.16 to 31.6 nM | 3.16 to 31.6 nM
N#Cc1ccc(NS(=O)(=O)c2coc3cc(Cl)ccc23)cc1 [Compound I-139, 6-chloro-N-(4-cyanophenyl)-1-benzofuran-3-sulfonamide] | 3.16 to 31.6 nM | > 31.6 nM
Cc1ccc(NS(=O)(=O)c2c[nH]c3cc(Cl)ccc23)c(F)c1 [Compound I-56, 6-chloro-N-(2-fluoro-4-methylphenyl)-1H-indole-3-sulfonamide] | > 31.6 nM | 3.16 to 31.6 nM
O=S(=O)(Nc1ncc(Cl)cc1F)c1c[nH]c2c1ccc1ccccc12 [Compound I-191, N-(5-chloro-3-fluoropyridin-2-yl)-1H-benzo[g]indole-3-sulfonamide] | 3.16 to 31.6 nM | < 3.16 nM
O=S(=O)(Nc1cccc2nsnc12)c1c[nH]c2nc(Br)ccc12 [Compound I-78, N-(2,1,3-benzothiadiazol-4-yl)-6-bromo-1H-pyrrolo[2,3-b]pyridine-3-sulfonamide] | < 3.16 nM | 3.16 to 31.6 nM
O=S(=O)(Nc1cc(F)ccc1F)c1c[nH]c2nc(Cl)ccc12 [Compound I-90, 6-chloro-N-(2,5-difluorophenyl)-1H-pyrrolo[2,3-b]pyridine-3-sulfonamide] | > 31.6 nM | > 31.6 nM
O=S(=O)(Nc1cc(F)c(Cl)cc1F)c1c[nH]c2cc(Cl)c(Br)cc12 [Compound I-248, 5-bromo-6-chloro-N-(4-chloro-2,5-difluorophenyl)-1H-indole-3-sulfonamide] | 3.16 to 31.6 nM | 3.16 to 31.6 nM
N#Cc1cc(F)c(NS(=O)(=O)c2c[nH]c3cc(OCc4ccccc4)ccc23)cc1F [Compound I-153, 6-(benzyloxy)-N-(4-cyano-2,5-difluorophenyl)-1H-indole-3-sulfonamide] | < 3.16 nM | 3.16 to 31.6 nM
O=S(=O)(Nc1ccc(F)c2nsnc12)c1c[nH]c2nc(Cl)ccc12 [Compound I-226, 6-chloro-N-(7-fluoro-2,1,3-benzothiadiazol-4-yl)-1H-pyrrolo[2,3-b]pyridine-3-sulfonamide] | > 31.6 nM | > 31.6 nM

Further lines, results first:

IC50 (GPR17 [1]) | Kb (GPR17 [2]) | Compound
< 3.16 nM | 3.16 to 31.6 nM | COc1nc(NS(=O)(=O)c2c[nH]c3nc(Cl)ccc23)c(F)cc1Cl [Compound I-336, 6-chloro-N-(5-chloro-3-fluoro-6-methoxypyridin-2-yl)-1H-pyrrolo[2,3-b]pyridine-3-sulfonamide]
3.16 to 31.6 nM | < 3.16 nM | O=S(=O)(Nc1cc(F)c(Br)cc1F)c1coc2cc(Cl)ccc12 [Compound I-259, N-(4-bromo-2,5-difluorophenyl)-6-chloro-1-benzofuran-3-sulfonamide]
3.16 to 31.6 nM | 3.16 to 31.6 nM | COc1ccc2c(S(=O)(=O)Nc3cc(F)c(Cl)cc3F)c[nH]c2n1 [Compound I-281, N-(4-chloro-2,5-difluorophenyl)-6-methoxy-1H-pyrrolo[2,3-b]pyridine-3-sulfonamide]
3.16 to 31.6 nM | 3.16 to 31.6 nM | N#Cc1ccc(NS(=O)(=O)c2c[nH]c3cc(OCC(F)(F)F)ccc23)c(F)c1 [Compound I-294, N-(4-cyano-2-fluorophenyl)-6-(2,2,2-trifluoroethoxy)-1H-indole-3-sulfonamide]
< 3.16 nM | < 3.16 nM | N#CCOc1cc(F)c(NS(=O)(=O)c2c[nH]c3c2ccc2cccnc23)cc1F [Compound I-360, N-[4-(cyanomethoxy)-2,5-difluorophenyl]-1H-pyrrolo[3,2-h]quinoline-3-sulfonamide]
3.16 to 31.6 nM | 3.16 to 31.6 nM | O=S(=O)(Nc1cc(F)c(Cl)cc1F)c1c[nH]c2cc(Cl)c(F)cc12 [Compound I-263, 6-chloro-N-(4-chloro-2,5-difluorophenyl)-5-fluoro-1H-indole-3-sulfonamide]

Source: patent publication US12071404B2, “Aza (indole)-, benzothiophene-, and benzofuran-3-sulfonamides” (UCB Pharma GmbH, priority 2016, dated 2024)
